Target: T1, human Werner helicase (WRN-BV08, Uniprot Q14191, amino acids 517-1235 with L1074F point mutation) (Homo sapiens, UniProt Q14191, L1074F)
T1 construct: Uniprot Q14191, amino acids 517-1235 with L1074F point mutation; TEV-cleavable 8×His (C, cleaved yes); made in house; host or cells: Sf9 insect cells (baculovirus)
Assay: WRN (BV08) ADP-Glo Assay
Assay type: biochemical
Conditions: 0.15 nM WRN, 5 μM ATP, 0.1 nM DNA duplex, 15 min preincubation, 60 min at 25° C., pH 7.5, 1% DMSO; read-out: ADP-Glo_hWRN_IC50
Summary of the method: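 0.15 nM WRN (aa 517-1235, L1074F, Sf9-expressed, tag cleaved) preincubated 15 min at 25 °C with compound, then 5 μM ATP and 0.1 nM DNA duplex added for 60 min. Buffer: 20 mM Bicine pH 7.5, 1 mM MgCl2, 10 mM KCl, 1 mM TCEP; 1% DMSO. ADP-Glo luminescence; IC50 by 4-parameter fit.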

T1 sequence (Q14191 with tags, fused parts or gaps L1074F limits assumed): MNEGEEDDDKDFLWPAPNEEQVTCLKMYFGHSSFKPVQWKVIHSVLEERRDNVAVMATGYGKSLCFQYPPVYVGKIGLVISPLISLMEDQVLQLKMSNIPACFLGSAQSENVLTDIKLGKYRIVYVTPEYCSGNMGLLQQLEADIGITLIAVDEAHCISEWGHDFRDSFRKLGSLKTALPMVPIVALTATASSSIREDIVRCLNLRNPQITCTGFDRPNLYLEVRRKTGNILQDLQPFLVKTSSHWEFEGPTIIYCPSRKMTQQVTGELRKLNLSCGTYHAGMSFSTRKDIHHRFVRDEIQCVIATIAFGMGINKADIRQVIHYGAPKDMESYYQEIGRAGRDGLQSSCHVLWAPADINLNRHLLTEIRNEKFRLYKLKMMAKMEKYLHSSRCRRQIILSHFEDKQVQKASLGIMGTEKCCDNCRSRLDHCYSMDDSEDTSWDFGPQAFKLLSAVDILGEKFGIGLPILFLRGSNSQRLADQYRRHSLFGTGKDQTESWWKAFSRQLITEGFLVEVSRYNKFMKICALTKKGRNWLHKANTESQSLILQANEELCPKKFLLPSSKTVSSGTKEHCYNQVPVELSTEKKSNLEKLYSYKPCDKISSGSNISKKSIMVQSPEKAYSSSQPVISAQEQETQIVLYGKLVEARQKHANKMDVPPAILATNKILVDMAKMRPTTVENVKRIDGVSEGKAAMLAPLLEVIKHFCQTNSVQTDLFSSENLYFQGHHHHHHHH

Q: Which IC50 does the source give for `COc1cc(CN(C(=O)C(c2ccc(-c3ccc(F)c(F)c3)cc2F)n2ccc(C)n2)[C@@H]2C=CS(=O)(=O)C2)ccn1` (single isomer, unassigned) [I-750, (2R*)-N-[(3R)-1,1-dioxo-2,3-dihydro-1lambda6-thiophen-3-yl]-N-[(2-methoxypyridin-4-yl)methyl]-2-(3-methyl-1H-pyrazol-1-yl)-2-{3,3′,4′-trifluoro-[1,1′-biphenyl]-4-yl}acetamide] here?
A: The IC50 was less than 0.5 µM.

Q: How did the IC50 turn out when `CC(C)(O)c1cc(CN(C(=O)Cn2cc(-c3cc(F)c(F)cc3F)cn2)C2C=CS(=O)(=O)C2)ccn1` (single isomer, unassigned) [I-763] was run?
A: The IC50 was less than 0.5 µM.

Q: How did the IC50 turn out when `COCCOC(C(=O)N(Cc1ccnc(C(C)(C)O)c1)[C@@H]1C=CS(=O)(=O)C1)c1ccc(S(F)(F)(F)(F)F)cc1` (single isomer, unassigned) [I-765] was run?
A: Its IC50 is 0.5 to 5 µM.

Q: Which IC50 does the source give for `CC(C)(O)c1cc(CN(C(=O)Cn2ncc(-c3ccc(F)c(F)c3)cc2=O)C2C=CS(=O)(=O)C2)ccn1` (single isomer, unassigned) [I-767] here?
A: Its IC50 is less than 0.5 µM.

Q: How did the IC50 turn out when `CC(C(=O)N(Cc1ccnc(C(C)(C)O)c1)[C@@H]1C=CS(=O)(=O)C1)n1ccc(-c2ccc(F)c(F)c2)cc1=O` (single isomer, unassigned) [I-769] was run?
A: Its IC50 is less than 0.5 µM.

Q: For `CC(C)(O)c1cc(CN(C(=O)Cn2ncc(-c3cc(F)c(F)c(F)c3)c2Cl)C2C=CS(=O)(=O)C2)ccn1` (single isomer, unassigned) [I-773], which IC50 is on record?
A: Its IC50 is less than 0.5 µM.

Q: Which IC50 does the source give for `CC(C(=O)N(Cc1ccnc(C(C)(C)O)c1)C1C=CS(=O)(=O)C1)n1cc(-c2ccc(C(F)(F)F)cc2)cn1` (single isomer, unassigned) [I-774, (2R*)-N-[(3R**)-1,1-dioxo-2,3-dihydro-1lambda6-thiophen-3-yl]-N-{[2-(2-hydroxypropan-2-yl)pyridin-4-yl]methyl}-2-{4-[4-(trifluoromethyl)phenyl]-1H-pyrazol-1-yl}propanamide] here?
A: The IC50 was 10 to 50 µM.

Q: `CC(C(=O)N(Cc1ccnc(C(C)(C)O)c1)C1C=CS(=O)(=O)C1)n1cc(-c2ccc(C(F)(F)F)cc2)cn1` (single isomer, unassigned) [I-775, (2R*)-N-[(3R**)-1,1-dioxo-2,3-dihydro-1lambda6-thiophen-3-yl]-N-{[2-(2-hydroxypropan-2-yl)pyridin-4-yl]methyl}-2-{4-[4-(trifluoromethyl)phenyl]-1H-pyrazol-1-yl}propanamide] was tested. Which IC50 did it give?
A: Its IC50 is 0.5 to 5 µM.

Q: `CC(C(=O)N(Cc1ccnc(C(C)(C)O)c1)C1C=CS(=O)(=O)C1)n1cc(-c2cc(F)c(F)c(F)c2)cn1` (single isomer, unassigned) [I-776, (2R*)-N-[(3R**)-1,1-dioxo-2,3-dihydro-1lambda6-thiophen-3-yl]-N-{[2-(2-hydroxypropan-2-yl)pyridin-4-yl]methyl}-2-[4-(3,4,5-trifluorophenyl)-1H-pyrazol-1-yl]propanamide] was tested. Which IC50 did it give?
A: The IC50 was less than 0.5 µM.

Q: `CC(C(=O)N(Cc1ccnc(C(C)(C)O)c1)C1C=CS(=O)(=O)C1)n1cc(-c2cc(F)c(F)c(F)c2)cn1` (single isomer, unassigned) [I-777, (2R*)-N-[(3R**)-1,1-dioxo-2,3-dihydro-1lambda6-thiophen-3-yl]-N-{[2-(2-hydroxypropan-2-yl)pyridin-4-yl]methyl}-2-[4-(3,4,5-trifluorophenyl)-1H-pyrazol-1-yl]propanamide] was tested. Which IC50 did it give?
A: The IC50 was less than 0.5 µM.

Q: With `CC(C)(O)c1cc(CN(C(=O)Cc2cc(-c3ccc(F)c(F)c3)n[nH]2)C2C=CS(=O)(=O)C2)ccn1` (single isomer, unassigned) [I-781] as the compound, how does the IC50 read?
A: Its IC50 is 10 to 50 µM.

Q: With `CC(C(=O)N(Cc1ccnc(C(C)(C)O)c1)[C@@H]1C=CS(=O)(=O)C1)n1cc(-c2ccc(C(F)(F)F)cc2)cn1` (single isomer, unassigned) [I-788] as the compound, how does the IC50 read?
A: The IC50 was 5 to 10 µM.

Q: `CC(C(=O)N(Cc1ccnc(C(C)(C)O)c1)[C@@H]1C=CS(=O)(=O)C1)n1cc(-c2cc(F)c(F)c(F)c2)cn1` (single isomer, unassigned) [I-789] was tested. Which IC50 did it give?
A: Its IC50 is less than 0.5 µM.

Q: How did the IC50 turn out when `CC(C)(O)c1cc(CN(C(=O)C(OCCC(F)(F)F)c2ccc(-c3ccc(F)c(F)c3)cc2F)[C@@H]2C=CS(=O)(=O)C2)ccn1` (single isomer, unassigned) [I-790] was run?
A: The IC50 was 0.5 to 5 µM.

— patent US20260297070A1, “CYCLIC [COMPOUND LEFT OUT] WRN INHIBITORS” (Nimbus Wadjet, Inc., priority 2023, published 2026)
